Molecules are shown by their SMILES. Active and inactive are the calls of the source.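 How the source made its calls: active means mean half-maximal activating concentration from the dose-response fit at or below a set limit; inactive means the rest.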

For this test, the target named is CHO-XBP1 luciferase reporter, IRE1-XBP1 UPR activation. The test is described as follows: activators of IRE1-XBP1 UPR arm, dose response, counter-screen for apoptotic UPR arm activators, CHO-XBP1 cells, luminescence (AID 489040).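 Further: reporter read after six hours of compound exposure.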 A general note: A counterscreen serves to expose hits that act by an unwanted route or on another target.
With `CC(=O)c1cccc(N=Cc2c(O)c3ccccc3oc2=O)c1`, the EC50 (as a rule, the midpoint of the concentration-response curve) is 15.4 µM. The same measure for `CN1C(=O)/C(=C/c2cccn2-c2ccc3ccccc3c2)C(=O)NC1=S`: 7.87 µM; for `Cc1ccc(C(=O)C(C(=O)/C=C/c2ccccc2)=C2SCCCS2)cc1`: > 80 µM (inactive). For `CCOC(=O)c1sc(NC(=S)NC(=O)c2ccccc2)c(C(=O)OCC)c1C` the value was > 80 µM (inactive); for `CCOC(=O)c1ccc(N2C(=O)C=CC2=O)cc1`, > 80 µM (inactive). The same measure for `CCCCn1c(/C=N/Nc2nc3ccccc3[nH]2)nc2ccccc21`: > 80 µM (inactive); for `O=C(/C(=C/c1ccc(Cl)cc1)c1nc2ccccc2[nH]1)c1ccccc1`: > 80 µM (inactive). For `COc1ccc(C(=O)N/N=C(\C)c2ccccn2)cc1OC`, the EC50 was > 80 µM (inactive). For `CN(C(=O)CSc1cc(C(=O)c2nccn2C)c2ccccc2n1)c1ccccc1` the value was > 80 µM (inactive). `O=C1NC(=O)N(CCc2ccc(F)cc2)C(=O)/C1=C/C=C/c1ccccc1`: the EC50 was > 80 µM (inactive). On to `COc1ccc(C(=O)Nc2ccccc2C(=O)N/N=C/c2ccccn2)cc1OC`, for which the EC50 is > 80 µM (inactive). As to `CNC[C@@H](Cc1ccccc1)NC[C@@H](CC1CCCCC1)NCCCc1ccccc1`, the EC50 was > 80 µM (inactive). In the case of `Cc1[nH]c2c(C)cccc2c1CCNC(=O)c1ccc2c(c1[N+](=O)[O-])C(=O)c1ccccc1C2=O`, the EC50 is > 80 µM (inactive).

Turning to `Cn1c(-c2cccc(OCc3ccccc3)c2)nc2c1c(=O)[nH]c(=O)n2Cc1ccccc1`, the EC50 was > 80 µM (inactive). The same measure for `COC(=O)c1ccc(-n2c(C)cc(C(=O)CCl)c2C)cc1`: 9.06 µM.

For the molecule `CCN(CC)S(=O)(=O)c1cc(NC(=O)Cn2ncc(Cl)c(Cl)c2=O)ccc1C`, the EC50 is > 80 µM (inactive).

Turning to `COc1ccc(CC2=CC(=O)c3ccccc3C2=O)cc1`, the EC50 was > 80 µM (inactive).

With `CCOC(=O)c1c(NC(C)=O)sc2c1CCC(C=O)=C2Sc1ccccc1`, the EC50 was > 80 µM (inactive). Consider `C/C(CC(C)(C)C1CCCCC1)=N\NC(N)=S`, for which the EC50 result was “inactive”.

For the molecule `CN1CCN(c2ccc(NC(=O)c3ccc([N+](=O)[O-])o3)cc2Cl)CC1`, the EC50 is > 80 µM (inactive). Regarding `O=C(NCc1ccccc1Cl)c1cccc2c1C(=O)c1ccc(-c3ccc(OC(F)(F)F)cc3)cc1S2(=O)=O`, the EC50 entry was “inactive”.

On to `Oc1c(Cl)cc(CN2CCOCC2)c2cccnc12`, for which the EC50 is > 80 µM (inactive). On to `Cc1cc(C(=O)CCl)c(C)n1-c1cccc([N+](=O)[O-])c1`, for which the EC50 was > 80 µM (inactive).

`CCCN1Cc2cccc(C(=O)Nc3ccc(-c4nc5ccccc5[nH]4)cc3)c2C1=O`: the EC50 is > 80 µM (inactive). For the molecule `Cc1c(C#N)c(NC(=O)CCl)n(Cc2cccs2)c1C`, the EC50 is > 80 µM (inactive). For `O=C(C=C=Nc1ccccc1)C(=O)N=C=Cc1ccccc1` the value was > 80 µM (inactive); for `CSc1nnc(NC(=O)c2nc(S(=O)(=O)Cc3ccc(C)cc3)ncc2Cl)s1`, > 80 µM (inactive); for `C/C(=N\NC(=O)C(c1ccccc1)c1ccccc1)c1ccccn1`, > 80 µM (inactive). With `CCCCCCCC(=O)Nc1ccc(C(=O)N/N=C/c2cccc([N+](=O)[O-])c2)cc1`, the EC50 is 17.5 µM. The same measure for `N#C/C(=C\c1ccc([N+](=O)[O-])o1)C(=O)Nc1ccc(F)cc1`: > 80 µM (inactive). For `N=c1c(-c2nc3ccccc3[nH]2)cc(C(=O)c2ccco2)nn1-c1ccccc1` the value was > 80 µM (inactive); for `O=C(N/N=C/c1ccccn1)c1sc2ccccc2c1Cl`, > 80 µM (inactive); for `Nc1nnnn1/N=C/C(Br)=C/c1ccccc1`, > 80 µM (inactive). With `CC(C)c1ccc(NC(=O)/C(C#N)=C/c2ccncc2)cc1`, the EC50 was > 80 µM (inactive).

In the case of `CN(C)C(=S)N=Nc1[nH]c2ccccc2c1O`, the EC50 is > 80 µM (inactive). For `O=C(C#Cc1ccccc1)c1cccc([N+](=O)[O-])c1` the value was > 80 µM (inactive).

Turning to `CCOC(=O)C(CC)(CC)C(=O)/C=C/c1cccc(Br)c1`, the EC50 is > 80 µM (inactive). The same measure for `CC(=O)Nc1ccc(N=Cc2c(O)c(C(=O)Nc3ccccc3)cc3ccccc23)cc1`: “inactive”. The same measure for `Cc1ccc(S(=O)(=O)N(C(=O)c2ccncc2)c2ccc(OC(=O)c3ccncc3)c3ccccc23)c(C)c1`: > 80 µM (inactive). For `CC(C)c1cccc(-c2ccc3c(c2)S(=O)(=O)c2cccc(C(=O)NCc4ccccc4Cl)c2C3=O)c1` the value was 11.2 µM; for `COc1ccccc1-c1nnc(Nc2nc3c(OC)cccc3s2)o1`, > 80 µM (inactive); for `Oc1c(C(c2ccccc2Cl)N2CCCC2)ccc2cccnc12` (stereo not drawn), > 80 µM (inactive). For `O=C1C=CC(=O)N1c1ccc(N2CCCCC2)cc1`, the EC50 is > 80 µM (inactive). Turning to `Cc1ccccc1S(=O)(=O)NC1OC(=O)C(Cl)=C1Cl` (stereo not drawn), the EC50 was > 80 µM (inactive). Turning to `Cn1nc([N+](=O)[O-])c(C(C#N)c2ccccn2)c(Cl)c1=O` (stereo not drawn), the EC50 was > 80 µM (inactive). As to `Cc1cc(C(=O)CCl)c(C)n1CCc1ccc(Cl)cc1`, the EC50 is > 80 µM (inactive). With `O=[N+]([O-])c1ccc(Sc2cccc3cccnc23)c([N+](=O)[O-])c1`, the EC50 was > 80 µM (inactive). The same measure for `COc1ccc(C2=CC(=O)N(Nc3ccccc3)C2=O)cc1`: > 80 µM (inactive); for `O=C(Nc1ccc(Cc2ccncc2)cc1)c1ccc([N+](=O)[O-])o1`: > 80 µM (inactive); for `CCOc1ccc(-n2c(C)cc(C(=O)CCl)c2C)cc1`: 5.83 µM. With `O=C(NCCc1ccc(F)cc1)c1coc(=O)c(Br)c1`, the EC50 is > 80 µM (inactive). Take `O=C(c1ccc(Cl)cc1)C(CN1CCCC1)c1ccccc1` (stereo not drawn): the EC50 was > 80 µM (inactive).

In the case of `O=C1NC(=O)N(c2ccccc2)C(=O)/C1=C/C=C/c1ccco1`, the EC50 is > 80 µM (inactive). The same measure for `S=C1SCN(CC2CC2)CN1CC1CC1`: > 80 µM (inactive). For the molecule `CC[C@@H](C)[C@H](NC(=O)OC(C)(C)C)c1nnc(S(=O)(=O)Cc2cc(C)ccc2C)o1`, the EC50 was > 80 µM (inactive). On to `O=C(/C=C/c1ccco1)NC(=S)Nc1ccc(O)c(-c2nc3ccccc3s2)c1`, for which the EC50 is 9.84 µM.

For `C=CCn1c(O)c(N=NC(=S)Nc2ccccc2F)c2cc(S(=O)(=O)N3CCOCC3)ccc21`, the EC50 is > 80 µM (inactive). The same measure for `CSC(=S)N/N=C(\C)c1ccccc1`: > 80 µM (inactive); for `COc1ccc(C2Nc3ccc4ccccc4c3-c3c2c(=O)oc2ccccc32)cc1` (stereo not drawn): 9.62 µM. The same measure for `O=[N+]([O-])c1cc(O)c2ncccc2c1`: > 80 µM (inactive); for `Cc1ccc(NC(=O)COc2ccc(/C=C3/SC(=Nc4ccccc4)N(Cc4cccnc4)C3=O)cc2)cc1`: “inactive”.

As to `C=CCNC(=S)N/N=C(\C)c1ccccn1`, the EC50 was > 80 µM (inactive).

On to `Cc1ccc(NC(=O)c2nc(S(=O)(=O)Cc3ccccc3C)ncc2Cl)cc1C`, for which the EC50 is > 80 µM (inactive). For `O=C(Oc1c(CN2CCOCC2)cc(Cl)c2cccnc12)c1ccccc1F` the value was > 80 µM (inactive). Regarding `Oc1c(C(c2ccccn2)N2CCC(Cc3ccccc3)CC2)cc(Cl)c2cccnc12` (stereo not drawn), the EC50 is > 80 µM (inactive). Take `COc1ccccc1/C=N\Nc1cc(C)nc(-n2nc(C)cc2C)n1`: the EC50 was > 80 µM (inactive). Take `CC(C)C(=O)N1CCN(c2ccc(NC(=O)c3ccc([N+](=O)[O-])o3)cc2)CC1`: the EC50 is > 80 µM (inactive). For the molecule `COc1ccc(N=Nc2ccc(O)c3ncccc23)cc1`, the EC50 entry is “inactive”. For `CCCCOC(=O)/C=C\C(=O)NC(N)=O` the value was > 80 µM (inactive). As to `CCOC(=O)Cc1csc(/N=C/c2c(O)n(-c3ccc(C)c(C)c3)c(=O)c3ccccc23)n1`, the EC50 is 18.3 µM. For `O=C(Nc1ccc(S(=O)(=O)N2CCOCC2)cc1)c1ccc([N+](=O)[O-])o1` the value was > 80 µM (inactive); for `O=C1C=CC(=O)C(C2=C3C(=O)N(CCc4ccccc4)CC(=O)N3CCC2)=C1`, > 80 µM (inactive); for `CCn1c(O)c(C2=c3ccccc3=NC2=O)c2cc(Br)ccc21`, > 80 µM (inactive). The same measure for `C=CCN=c1scc(-c2ccco2)n1/N=C/c1ccc(O)c(O)c1O`: > 80 µM (inactive); for `COc1cccc(N=Nc2ccc(O)c3ncccc23)c1`: > 80 µM (inactive). In the case of `Cc1ccccc1NC(=O)c1ccc(N/N=C/c2ccccc2O)c([N+](=O)[O-])c1`, the EC50 was > 80 µM (inactive). The same measure for `Cc1cc(C(=O)c2ccc(C(C)(C)C)cc2)c(NC(=O)CCl)s1`: > 80 µM (inactive); for `OCCNc1nc(Nc2ccc(Cl)c(Cl)c2)nc2ccccc12`: > 80 µM (inactive).

`COc1cc(/C=C/C(=O)c2ccc3c(c2)OCCO3)cc(Br)c1OCC(=O)N(C)C`: the EC50 was > 80 µM (inactive). As to `O=S(=O)(Nc1cccc2cccnc12)c1ccc(S(=O)(=O)N2CCCC2)cc1`, the EC50 was > 80 µM (inactive). The same measure for `N#CC1(C#N)COC23CCCCC2C1(C#N)C(=N)O3` (stereo not drawn): > 80 µM (inactive); for `CCCCC(CC)CN=C(N)NC(N)=NCCCCCCN=C(N)NC(N)=NCC(CC)CCCC` (stereo not drawn): > 80 µM (inactive); for `O=C(Oc1c(CN2CCOCC2)cc(Cl)c2cccnc12)c1ccc(F)cc1`: > 80 µM (inactive). For `C/C(=N\NC(=O)COc1ccccc1-c1ccccc1)c1ccccn1` the value was > 80 µM (inactive); for `CSc1nnc(NC(=O)c2nc(S(=O)(=O)Cc3cccc(C)c3)ncc2Cl)s1`, > 80 µM (inactive); for `Cc1ccc(-c2cc(-c3ccc(C)cc3)[n+](-c3ccccc3)c(-c3ccc(C)cc3)c2)cc1`, > 80 µM (inactive). Consider `COc1cccc(N=Nc2ccc3cccnc3c2O)c1`, for which the EC50 is > 80 µM (inactive). For `O=C(CCl)Nc1cc(S(=O)(=O)N2CCCCCC2)ccc1Cl`, the EC50 was > 80 µM (inactive).
